Here are results for 20 molecules from ChEMBL document CHEMBL2074266, “Molecular cloning and characterization of multispecific organic anion transporter 4 expressed in the placenta” (J Biol Chem, 2000).

Series [1] deals with T1, Solute carrier family 22 member 11 (Homo sapiens, UniProt Q9NSA0).
T1 sequence (Q9NSA0 whole entry): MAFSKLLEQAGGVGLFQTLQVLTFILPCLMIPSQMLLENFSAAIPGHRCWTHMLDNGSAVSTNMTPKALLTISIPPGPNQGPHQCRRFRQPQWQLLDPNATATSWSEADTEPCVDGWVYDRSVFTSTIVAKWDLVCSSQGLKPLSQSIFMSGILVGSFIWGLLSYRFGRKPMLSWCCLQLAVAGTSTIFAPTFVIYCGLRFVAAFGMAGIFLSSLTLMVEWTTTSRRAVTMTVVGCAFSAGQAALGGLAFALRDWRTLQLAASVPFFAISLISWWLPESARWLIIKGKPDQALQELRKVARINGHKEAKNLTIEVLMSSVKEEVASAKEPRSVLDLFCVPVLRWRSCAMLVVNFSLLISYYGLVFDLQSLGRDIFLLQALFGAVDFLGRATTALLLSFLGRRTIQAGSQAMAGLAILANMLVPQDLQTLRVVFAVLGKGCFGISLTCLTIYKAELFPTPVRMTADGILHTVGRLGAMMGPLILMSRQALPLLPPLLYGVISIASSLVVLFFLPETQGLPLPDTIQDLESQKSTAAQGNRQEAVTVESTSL
Briefly: TP_TRANSPORTER: inhibition of E1S uptake (E1S: 0.05 uM, p-Nitrophenyl glucuronide: 500 uM) in Xenopus laevis oocytes. In kind it is functional, cell-based. The note with it: oocyte.

For series [2], the target named is T1, Solute carrier family 22 member 11. Briefly: TP_TRANSPORTER: inhibition of E1S uptake (E1S: 0.05 uM, DHEAS: 500 uM) in Xenopus laevis oocytes. In kind it is functional, cell-based. The settings on record: oocyte.
Series [3] shares this target. Briefly: TP_TRANSPORTER: inhibition of E1S uptake (E1S: 0.05 uM, beta-Estradiol: 500 uM) in Xenopus laevis oocytes. The note with it: oocyte. In kind it is functional, cell-based.
For series [4] the target is unchanged. As to the kind of experiment: TP_TRANSPORTER: inhibition of E1S uptake (E1S: 0.05 uM, Indomethacin: 500 uM) in Xenopus laevis oocytes. In kind it is functional, cell-based. The note with it: oocyte.
Series [5] has the same target. As to the kind of experiment: TP_TRANSPORTER: inhibition of E1S uptake (E1S: 0.05 uM, Furosemide: 500 uM) in Xenopus laevis oocytes. The settings on record: oocyte. In kind it is functional, cell-based.
For series [6] the target is unchanged. Briefly: TP_TRANSPORTER: inhibition of E1S uptake (E1S: 0.05 uM, Bumetanide: 500 uM) in Xenopus laevis oocytes. The settings on record: oocyte. In kind it is functional, cell-based.
Series [7] shares this target. As to the kind of experiment: TP_TRANSPORTER: inhibition of E1S uptake (E1S: 0.05 uM, Estradiol-3-glucuronide: 500 uM) in Xenopus laevis oocytes. In kind it is functional, cell-based. The settings on record: oocyte.
The target is the same in series [8]. As to the kind of experiment: (§1) TP_TRANSPORTER: uptake in Xenopus laevis oocytes. It counts as functional, cell-based. The note with it: oocyte.
For series [9] the target is unchanged. As to the kind of experiment: TP_TRANSPORTER: inhibition of E1S uptake (E1S: 0.05 uM, Corticosterone: 500 uM) in Xenopus laevis oocytes. It counts as functional, cell-based. The settings on record: oocyte.
For series [10] the target is unchanged. As to the kind of experiment: TP_TRANSPORTER: inhibition of E1S uptake (E1S: 0.05 uM, beta-estradiol sulfate: 500 uM) in Xenopus laevis oocytes. It counts as functional, cell-based. The note with it: oocyte.
The target is the same in series [11]. Briefly: TP_TRANSPORTER: inhibition of E1S uptake (E1S: 0.05 uM, Ibuprofen: 500 uM) in Xenopus laevis oocytes. It counts as functional, cell-based. The note with it: oocyte.
Series [12] has the same target. As to the kind of experiment: TP_TRANSPORTER: inhibition of E1S uptake (E1S: 0.05 uM, 4-methylumbeliferone glucuronide: 500 uM) in Xenopus laevis oocytes. In kind it is functional, cell-based. The note with it: oocyte.
For series [13] the target is unchanged. Briefly: TP_TRANSPORTER: inhibition of E1S uptake (E1S: 0.05 uM, Acetaminophen glucuronide: 500 uM) in Xenopus laevis oocytes. It counts as functional, cell-based. The note with it: oocyte.
For series [14] the target is unchanged. As to the kind of experiment: TP_TRANSPORTER: inhibition of E1S uptake (E1S: 0.05 uM, alpha-naphthyl beta-D-glucuronide: 500 uM) in Xenopus laevis oocytes. It counts as functional, cell-based. The settings on record: oocyte.
The target is the same in series [15]. As to the kind of experiment: TP_TRANSPORTER: inhibition of E1S uptake (E1S: 0.05 uM, Glutarate: 500 uM) in Xenopus laevis oocytes. In kind it is functional, cell-based. The note with it: oocyte.
Series [16] shares this target. As to the kind of experiment: TP_TRANSPORTER: inhibition of E1S uptake (E1S: 0.05 uM, BSP: 100 uM) in Xenopus laevis oocytes. In kind it is functional, cell-based. The note with it: oocyte.
Series [17] shares this target. As to the kind of experiment: TP_TRANSPORTER: inhibition of E1S uptake (E1S: 0.05 uM, Diclofenac: 500 uM) in Xenopus laevis oocytes. The note with it: oocyte. It counts as functional, cell-based.
For series [18] the target is unchanged. As to the kind of experiment: TP_TRANSPORTER: inhibition of E1S uptake (E1S: 0.05 uM, 4-methylumbelliferyl sulfate: 500 uM) in Xenopus laevis oocytes. In kind it is functional, cell-based. The settings on record: oocyte.
Substrate in series [19]: C[C@]12CC[C@@H]3c4ccc(OS(=O)(=O)O)cc4CC[C@H]3[C@@H]1CCC2=O
The series is described as §1. In kind it is functional, cell-based, Oocyte.

Substrate in series [20]: [H][C@@]12CC=C3C[C@@H](OS(=O)(=O)O)CC[C@]3(C)[C@@]1([H])CC[C@]1(C)C(=O)CC[C@@]21[H]
The series is described as §1. It counts as functional, cell-based, Oocyte.

As for `O=C(O)[C@H]1O[C@@H](Oc2ccc([N+](=O)[O-])cc2)[C@H](O)[C@@H](O)[C@@H]1O`, the Activity result in series [1] was “is not an inhibitor [-]”.

As for `C[C@]12CC[C@H](OS(=O)(=O)O)CC1=CC[C@@H]1[C@@H]2CC[C@]2(C)C(=O)CC[C@@H]12` [PRASTERONE SULFURIC ACID], the Activity entry in series [2] is “inhibitor [(at a rough estimate) 15 % of control]”.

For `C[C@]12CC[C@@H]3c4ccc(O)cc4CC[C@H]3[C@@H]1CC[C@@H]2O` [ESTRADIOL], in series [3], the Activity result is “is not an inhibitor [-]”.

Take `COc1ccc2c(c1)c(CC(=O)O)c(C)n2C(=O)c1ccc(Cl)cc1` [INDOMETHACIN]: the Activity result in series [4] is “inhibitor [(at a rough estimate) 5 % of control]”.

Regarding `NS(=O)(=O)c1cc(C(=O)O)c(NCc2ccco2)cc1Cl` [FUROSEMIDE], the Activity entry in series [5] was “inhibitor [(at a rough estimate) 5 % of control]”.

Regarding `CCCCNc1cc(C(=O)O)cc(S(N)(=O)=O)c1Oc1ccccc1` [BUMETANIDE], the Activity entry in series [6] is “inhibitor [(at a rough estimate) 15 % of control]”.

As for `C[C@]12CC[C@@H]3c4ccc(O[C@@H]5O[C@H](C(=O)O)[C@@H](O)[C@H](O)[C@H]5O)cc4CC[C@H]3[C@@H]1CC[C@@H]2O`, the Activity entry in series [7] was “is not an inhibitor [-]”.

Consider `Nc1ccc(C(=O)NCC(=O)O)cc1` [AMINOHIPPURIC ACID], for which, in [8], the Activity entry is “substrate [+]”.

On to `C[C@]12C[C@H](O)[C@H]3[C@@H](CCC4=CC(=O)CC[C@@]43C)[C@@H]1CC[C@@H]2C(=O)CO` [CORTICOSTERONE], for which, in series [9], the Activity entry is “inhibitor [(at a rough estimate) 30 % of control]”.

Consider `C[C@@H]1Cc2c(Cl)cc(C(=O)N[C@@H](Cc3ccccc3)C(=O)O)c(O)c2C(=O)O1` [3R14S-OCHRATOXIN A], for which, in [8], the Activity result was “substrate [+]”.

Consider `C[C@]12CC[C@@H]3c4ccc(OS(=O)(=O)O)cc4CC[C@H]3[C@@H]1CC[C@@H]2O`, for which the Activity entry in [10] is “inhibitor [(at a rough estimate) 25 % of control]”.

For the molecule `CC(C)Cc1ccc(C(C)C(=O)O)cc1` (stereo unspecified) [IBUPROFEN], the Activity entry in series [11] is “inhibitor [(at a rough estimate) 10 % of control]”.

On to `O=C(O)[C@H]1O[C@@H](OCc2cc(=O)oc3cc(O)ccc23)[C@H](O)[C@@H](O)[C@@H]1O`, for which the Activity result in [12] was “is not an inhibitor [-]”.

On to `CC(=O)Nc1ccc(O[C@@H]2O[C@H](C(=O)O)[C@@H](O)[C@H](O)[C@H]2O)cc1` [ACETAMINOPHEN GLUCURONIDE], for which the Activity entry in series [13] was “is not an inhibitor [-]”.

For the molecule `O=C(O)[C@H]1O[C@@H](Oc2cccc3ccccc23)[C@H](O)[C@@H](O)[C@@H]1O`, the Activity entry in series [14] was “is not an inhibitor [-]”.

Regarding `O=C(O)CCCC(=O)O` [GLUTARATE], the Activity entry in series [15] is “is not an inhibitor [-]”.

Regarding `O=C1OC(c2ccc(O)c(S(=O)(=O)[O-])c2)(c2ccc(O)c(S(=O)(=O)[O-])c2)c2c(Br)c(Br)c(Br)c(Br)c21.[Na+].[Na+]` [SULFOBROMOPHTHALEIN SODIUM], in series [16], the Activity result was “inhibitor [(at a rough estimate) <5 % of control]”.

For `O=C(O)Cc1ccccc1Nc1c(Cl)cccc1Cl` [DICLOFENAC], the Activity entry in series [17] is “inhibitor [(at a rough estimate) 5 % of control]”.

Turning to `Cc1cc(=O)oc2cc(OS(=O)(=O)O)ccc12`, the Activity result in series [18] is “inhibitor [(at a rough estimate) 40 % of control]”.

B1: Solute carrier family 22 member 11 (Homo sapiens) (protein)
chain: MAFSKLLEQAGGVGLFQTLQVLTFILPCLMIPSQMLLENFSAAIPGHRCWTHMLDNGSAVSTNMTPKALLTISIPPGPNQGPHQCRRFRQPQWQLLDPNATATSWSEADTEPCVDGWVYDRSVFTSTIVAKWDLVCSSQGLKPLSQSIFMSGILVGSFIWGLLSYRFGRKPMLSWCCLQLAVAGTSTIFAPTFVIYCGLRFVAAFGMAGIFLSSLTLMVEWTTTSRRAVTMTVVGCAFSAGQAALGGLAFALRDWRTLQLAASVPFFAISLISWWLPESARWLIIKGKPDQALQELRKVARINGHKEAKNLTIEVLMSSVKEEVASAKEPRSVLDLFCVPVLRWRSCAMLVVNFSLLISYYGLVFDLQSLGRDIFLLQALFGAVDFLGRATTALLLSFLGRRTIQAGSQAMAGLAILANMLVPQDLQTLRVVFAVLGKGCFGISLTCLTIYKAELFPTPVRMTADGILHTVGRLGAMMGPLILMSRQALPLLPPLLYGVISIASSLVVLFFLPETQGLPLPDTIQDLESQKSTAAQGNRQEAVTVESTSL
A word on the Km: it is the substrate concentration at which the rate is half of its maximum. B1: the Km in series [19] came to 1.01 µM; in series [20], 0.63 µM.
